Test results: patent US9271978B2 (Zenith Epigenetics Corp., priority 2012, dated 2016)

Key:
[1] = target: T1, Brd4 bromodomain 1 (BRD4(1)) (Homo sapiens, UniProt O60885); test: Inhibition of tetra-acetylated histone H4 binding to Brd4 bromodomain 1 (TR-FRET); parameters: key: Active: Compounds with an IC50 value less than 30 μM were deemed to be active.; Not Active: Compounds with an IC50 value less than 30 μM were deemed to be active; conditions: tetra-acetylated histone H4 peptide, active = IC50 <30 μM
T1 construct: Illustrative results with the first bromodomain of Brd4; made in house; host or cells: E. coli BL21 (DE3)
How it was run: (§1)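 N-terminally His-tagged bromodomains (200 nM), expressed in E. coli, were incubated with biotinylated tetra-acetylated histone H4 peptide (25-50 nM), Eu-cryptate streptavidin and XL665 anti-His antibody in HEPES pH 7.4 buffer with KF, 0.2% DMSO, 2 h at room temperature. Inhibition read as decreased 665/620 nm TR-FRET; IC50 from dose-response curves.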

[2] = test system: c-myc; test: Inhibition of c-myc expression in MV4-11 cells (mRNA, real-time PCR); assay type: cell-based; parameters: key: Active: Compounds with an IC50 value less than 30 μM were deemed to be active.; Not Active: Compounds with an IC50 value less than 30 μM were deemed to be active; conditions: Human AML MV4-11 cells, 3 h incubation
How it was run: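 MV4-11 cells (2.5×10^4) treated with compound or 0.1% DMSO for 3 h at 37 °C. c-myc mRNA measured by RT real-time PCR duplexed with cyclophilin. IC50 from dose–response curve.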

[3] = test system: hIL-6 mRNA; test: Inhibition of hIL-6 mRNA transcription in U937 cells; assay type: cell-based, human; parameters: key: Active: Compounds with an IC50 value less than 30 μM were deemed to be active.; Not Active: Compounds with an IC50 value less than 30 μM were deemed to be active; conditions: LPS stimulation, active = IC50 <30 μM
How it was run: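 U937 cells differentiated 3 days with 60 ng/mL PMA, pretreated 1 h with compound, then stimulated with 1 ug/mL E. coli LPS for 3 h at 37° C. hIL-6 mRNA quantified by one-step qRT-PCR, Ct normalized to internal control, expressed as fold induction relative to control.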

[4] = target: T2, second bromodomain of Brd2 (BRD2(2)) (Homo sapiens, UniProt P25440); test: Inhibition of tetra-acetylated histone H4 binding to Brd2 bromodomain 2 (TR-FRET); parameters: key: Active: Compounds with an IC50 value less than 30 μM were deemed to be active.; Not Active: Compounds with an IC50 value less than 30 μM were deemed to be active; conditions: tetra-acetylated histone H4 peptide, active = IC50 <30 μM
T2 construct: made in house; host or cells: E. coli BL21 (DE3)
How it was run: as §1

[5] = test system: ApoA-I mRNA; test: Up-regulation of hApoA-1 mRNA transcription in Huh7 cells; assay type: cell-based, human; parameters: key: Active: Compounds with an EC170 value less than 30 μM were deemed to be active; conditions: 48 h treatment, ApoA-I mRNA by real-time PCR, Active = EC170 less than 30 μM
How it was run: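 Huh7 cells treated with compound for 48 h. ApoA-I mRNA was then quantified in captured mRNA by one-step real-time RT-PCR. Fold induction calculated from Ct values relative to the matching DMSO control; EC170 is the concentration for 170% of control expression.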

[6] = test system: human AML MV-4-11 (CRL-9591) cells; test: Inhibition of cell proliferation in MV4-11 cells; assay type: cell-based; parameters: key: Active: Compounds with an IC50 value less than 30 μM were deemed to be active.; Not Active: Compounds with an IC50 value less than 30 μM were deemed to be active; conditions: human AML MV-4-11 cells, 72 h; active = IC50 <30 μM
How it was run: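 Exponentially growing MV-4-11 cells (5×10^4/well) were treated immediately with two-fold dilutions of compound from 30 μM to 0.2 μM, in triplicate, for 72 h at 37° C, 5% CO2. Viability was measured by MTS absorbance at 490 nm after 3–4 h. Proliferation relative to DMSO after blank correction gave IC50.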

T2 sequence (P25440 344-453 limits assumed): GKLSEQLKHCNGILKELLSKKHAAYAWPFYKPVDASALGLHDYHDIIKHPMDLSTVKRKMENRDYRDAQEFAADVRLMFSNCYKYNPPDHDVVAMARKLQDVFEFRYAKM

SMILES | FRET activity (IC50 <30 μM) BRD4(1) [1] | c-myc activity (IC50 <30 μM) [2] | IL-6 activity (IC50 <30 μM) [3] | FRET activity (IC50 <30 μM) BRD2(2) [4] | Cell Proliferation activity (IC50 <30 μM) [6] | ApoA-1 activity (EC170 <30 μM) [5]
CCC(c1ccccc1)n1cc(-c2c(C)noc2C)ccc1=O (stereo not drawn) [Example 43, 5-(3,5-Dimethylisoxazol-4-yl)-1-(1-phenylpropyl)pyridin-2(1H)-one] | Active | Active | Active | Active | Active | Active
Cc1noc(C)c1-c1ccc(=O)n(Cc2cccc3cccnc23)c1 [Example 47, 5-(3,5-Dimethylisoxazol-4-yl)-1-(quinolin-8-ylmethyl)pyridin-2(1H)-one] | Active | Active | Active | Active | Active | Active
Cc1noc(C)c1-c1ccc(=O)n(CC2CCC2)c1 [Example 49, 1-(Cyclobutylmethyl)-5-(3,5-dimethylisoxazol-4-yl)pyridin-2(1H)-one] | Active | Active | Active | Active | Active | Active
Cc1noc(C)c1-c1ccc(=O)n(Cc2cccc(C(F)F)c2)c1 [Example 50, 1-(3-(Difluoromethyl)benzyl)-5-(3,5-dimethylisoxazol-4-yl)pyridin-2(1H)-one] | Active | Active | Active | Active | Active | Active
Cc1noc(C)c1-c1ccc(=O)n(CCOc2ccccc2)c1 [Example 51, 5-(3,5-Dimethylisoxazol-4-yl)-1-(2-phenoxyethyl)pyridin-2(1H)-one] | Active | Not Active | Active | Active | Not Active | Active
Cc1noc(C)c1-c1ccc(=O)n(Cc2ccc(Cl)cn2)c1 [Example 55, 1-((5-Chloropyridin-2-yl)methyl)-5-(3,5-dimethylisoxazol-4-yl)pyridin-2(1H)-one] | Active | Active | Active | Active | Active | Active
Cc1noc(C)c1-c1cc(C)c(=O)n(Cc2ccccc2)c1 [Example 66, 1-Benzyl-5-(3,5-dimethylisoxazol-4-yl)-3-methylpyridin-2(1H)-one] | Active | Active | Active | Active | Active | Active
Cc1noc(C)c1-c1ccc(=O)n(C(C)c2cccc(F)c2)c1 (stereo not drawn) [Example 104, 5-(3,5-Dimethylisoxazol-4-yl)-1-(1-(3-fluorophenyl)ethyl)pyridin-2(1H)-one] | Active | Active | Active | Active | Active | Active
Cc1noc(C)c1-c1ccc(=O)n(C(C)c2ccc(Cl)cc2)c1 (stereo not drawn) [Example 105, 1-(1-(4-Chlorophenyl)ethyl)-5-(3,5-dimethylisoxazol-4-yl)pyridin-2(1H)-one] | Active | Active | Active | Active | Active | Active

More lines, main results first:

FRET activity (IC50 <30 μM) BRD4(1) [1] | c-myc activity (IC50 <30 μM) [2] | IL-6 activity (IC50 <30 μM) [3] | FRET activity (IC50 <30 μM) BRD2(2) [4] | Cell Proliferation activity (IC50 <30 μM) [6] | SMILES | ApoA-1 activity (EC170 <30 μM) [5]
Active | Not Active | Active | Active | Not Active | COc1cc(-c2ccc(=O)n(Cc3ccccc3)c2)cc(OC)c1OC [Example 52, 1-Benzyl-5-(3,4,5-trimethoxyphenyl)pyridin-2(1H)-one] | Active
Active | Not Active | Active | Active | Active | COc1cc(-c2ccc(=O)n(Cc3ccccc3C#N)c2)cc(OC)c1OC [Example 53, 2-((2-Oxo-5-(3,4,5-trimethoxyphenyl)pyridin-1(2H)-yl)methyl)benzonitrile] | Active
Active | Active | Active | Active | Active | COc1cc(Nc2ccc(=O)n(Cc3ccccc3)n2)cc(OC)c1OC [Example 54, 2-Benzyl-6-((3,4,5-trimethoxyphenyl)amino)pyridazin-3(2H)-one] | Active
Active | Not Active | Active | Active | Not Active | COc1ccc(Nc2ccc(=O)n(Cc3ccccc3)n2)cc1OC [Example 60, 2-Benzyl-6-((3,4-dimethoxyphenyl)amino)pyridazin-3(2H)-one] | Active
Active | Active | Active | Active | Active | CNc1cc(-c2c(C)noc2C)cn(Cc2ccccc2)c1=O [Example 75, 1-Benzyl-5-(3,5-dimethylisoxazol-4-yl)-3-(methylamino)pyridin-2(1H)-one] | Active
Active | Not Active | Active | Active | Not Active | COc1cc(-c2ccc(=O)n(Cc3ccc(NC(C)=O)cc3)n2)cc(OC)c1OC [Example 82, N-(4-((6-Oxo-3-(3,4,5-trimethoxyphenyl)pyridazin-1(6H)-yl)methyl)phenyl)acetamide] | Active
Active | Not Active | Active | Active | Active | COc1cc(-c2ccc(=O)n(Cc3ccccc3)n2)ccc1O [Example 83, 2-Benzyl-6-(4-hydroxy-3-methoxyphenyl)pyridazin-3(2H)-one] | Active
Active | Active | Active | Active | Not Active | COc1ccc(Nc2ccc(=O)n(Cc3ccccc3)n2)nc1OC [Example 99, 2-Benzyl-6-((5,6-dimethoxypyridin-2-yl)amino)pyridazin-3(2H)-one] | Active
